From patent publication US9617267B2, “Compounds and methods for kinase modulation, and indications therefor” (Plexxikon Inc., priority 2009, dated 2017)
Where two headings read alike, the source gives them in different places.

How the values were obtained:
c-Raf-1 = c-Raf-1 (Homo sapiens, UniProt P04049); experiment: c-Raf-1 kinase activity biochemical assay (AlphaScreen, biotin-MEK1 phosphorylation)
Procedure, shortened: (§1)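 Compounds from a 0.1 mM DMSO stock were tested at 8 serially diluted points. Kinase reactions with 100 μM ATP (final) ran 45 min at room temperature, then were stopped with EDTA buffer containing anti-phospho-MEK1/2 antibody plus streptavidin donor and protein A acceptor beads.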

CYP3A4(BFC) = CYP3A4(BFC) (Homo sapiens (Human), UniProt P08684); experiment: CYP enzyme inhibition, fluorescent substrate BFC
Sequence of CYP3A4(BFC) (P08684 whole entry): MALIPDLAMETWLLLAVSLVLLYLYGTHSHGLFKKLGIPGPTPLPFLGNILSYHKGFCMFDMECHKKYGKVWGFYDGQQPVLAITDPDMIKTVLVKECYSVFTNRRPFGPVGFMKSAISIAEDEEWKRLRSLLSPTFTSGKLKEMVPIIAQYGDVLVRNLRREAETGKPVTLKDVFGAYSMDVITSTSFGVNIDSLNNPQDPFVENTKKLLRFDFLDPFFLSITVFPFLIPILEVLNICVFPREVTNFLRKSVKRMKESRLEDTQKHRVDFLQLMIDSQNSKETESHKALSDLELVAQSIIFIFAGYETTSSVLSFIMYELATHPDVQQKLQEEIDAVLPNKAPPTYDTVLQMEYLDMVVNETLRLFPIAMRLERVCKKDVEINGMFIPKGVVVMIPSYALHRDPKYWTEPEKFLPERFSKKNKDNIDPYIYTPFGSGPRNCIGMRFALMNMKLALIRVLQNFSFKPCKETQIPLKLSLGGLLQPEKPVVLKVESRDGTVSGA
Procedure, shortened: (§2)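 10-pt 1:1 serial dilution in co-factor mix (DMSO stock 100 mM); 10 min preincubation, 37 °C; reaction at 37 °C. Readout: fluorescent metabolite of probe substrate. IC50 from signal vs [compound].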

CYP3A4(BQ) = CYP3A4(BQ) (Homo sapiens (Human), UniProt P08684); experiment: CYP enzyme inhibition, fluorescent substrate BQ
Sequence of CYP3A4(BQ) (P08684 whole entry): as above
Procedure, shortened: as §2

CYP1A2 = CYP1A2 (Homo sapiens (Human), UniProt P05177); experiment: CYP enzyme inhibition, fluorescent substrate (CEC)
Sequence of CYP1A2 (P05177 whole entry): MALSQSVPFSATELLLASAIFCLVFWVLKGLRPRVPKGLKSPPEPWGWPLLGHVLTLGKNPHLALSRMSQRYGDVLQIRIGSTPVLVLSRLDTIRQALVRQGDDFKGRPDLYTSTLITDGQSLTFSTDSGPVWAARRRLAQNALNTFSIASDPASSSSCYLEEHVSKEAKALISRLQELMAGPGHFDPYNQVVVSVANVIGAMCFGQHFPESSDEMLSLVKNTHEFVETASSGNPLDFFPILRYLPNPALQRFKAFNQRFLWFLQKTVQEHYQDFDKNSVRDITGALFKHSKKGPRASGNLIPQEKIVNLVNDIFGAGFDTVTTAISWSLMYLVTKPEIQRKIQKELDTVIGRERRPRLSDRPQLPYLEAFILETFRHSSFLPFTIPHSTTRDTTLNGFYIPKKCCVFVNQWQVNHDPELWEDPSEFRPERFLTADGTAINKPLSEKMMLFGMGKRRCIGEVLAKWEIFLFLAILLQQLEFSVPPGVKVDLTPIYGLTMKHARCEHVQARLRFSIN
Procedure, shortened: (§3)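 IC50 derived from loss of fluorescent metabolite across a 10-point 1:1 dilution series. CYP2D6: 1.5 pmol enzyme, 1.5 μM AMMC, 30 min at 37 °C, 409/530 nm; CYP1A2: 0.5 pmol, 5 μM CEC, 15 min, 409/460 nm. Compounds pre-incubated 10 min in NADPH-regenerating mix.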

CYP2D6 = CYP2D6 (Homo sapiens (Human), UniProt P10635); experiment: CYP enzyme inhibition, fluorescent substrate (AMMC); format: in vitro ADME; conditions: read-out: Cyp IC50 2D6
Sequence of CYP2D6 (P10635 whole entry): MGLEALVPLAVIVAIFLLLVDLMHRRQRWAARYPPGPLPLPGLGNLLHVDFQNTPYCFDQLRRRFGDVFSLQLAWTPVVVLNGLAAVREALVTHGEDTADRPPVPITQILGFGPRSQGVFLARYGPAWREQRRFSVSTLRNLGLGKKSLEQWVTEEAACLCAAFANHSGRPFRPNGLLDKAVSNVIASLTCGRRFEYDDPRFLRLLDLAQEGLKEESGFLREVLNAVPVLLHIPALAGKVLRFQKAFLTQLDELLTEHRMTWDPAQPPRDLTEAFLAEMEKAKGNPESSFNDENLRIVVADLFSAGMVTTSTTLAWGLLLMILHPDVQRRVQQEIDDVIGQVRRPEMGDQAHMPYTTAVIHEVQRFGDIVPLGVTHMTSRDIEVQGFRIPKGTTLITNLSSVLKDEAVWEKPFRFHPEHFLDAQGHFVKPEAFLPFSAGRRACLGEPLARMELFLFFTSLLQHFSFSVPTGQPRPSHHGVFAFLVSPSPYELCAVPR
Procedure, shortened: as §3

CYP2C19 = CYP2C19 (Homo sapiens (Human), UniProt P33261); experiment: CYP enzyme inhibition, fluorescent substrate (CEC)
Sequence of CYP2C19 (P33261 whole entry): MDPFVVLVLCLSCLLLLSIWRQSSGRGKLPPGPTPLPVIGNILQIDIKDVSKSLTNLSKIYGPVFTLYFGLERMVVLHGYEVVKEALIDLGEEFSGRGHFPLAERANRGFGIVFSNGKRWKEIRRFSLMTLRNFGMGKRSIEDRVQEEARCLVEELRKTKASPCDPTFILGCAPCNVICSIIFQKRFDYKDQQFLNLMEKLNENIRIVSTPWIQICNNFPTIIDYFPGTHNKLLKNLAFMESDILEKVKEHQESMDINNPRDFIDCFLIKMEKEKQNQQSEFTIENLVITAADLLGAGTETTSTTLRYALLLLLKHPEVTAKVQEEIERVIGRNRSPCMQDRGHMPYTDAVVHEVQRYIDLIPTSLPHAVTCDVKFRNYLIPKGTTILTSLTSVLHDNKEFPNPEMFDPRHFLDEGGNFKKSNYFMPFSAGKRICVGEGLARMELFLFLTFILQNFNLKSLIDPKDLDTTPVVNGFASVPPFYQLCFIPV
Procedure, shortened: as §2

[1] = Relative solubility by turbidity threshold concentration in aqueous buffers (pH 1.5, 4.5, 6.8, 7.4); format: physicochemical; conditions: for turbidity threshold (L, M, H) 1.4: pH 1.4 [sic] (method: SGF pH 1.5); for turbidity threshold (L, M, H) 4.5: pH 4.5 (SIF); for turbidity threshold (L, M, H) 6.8: pH 6.8 (SIF); for turbidity threshold (L, M, H) 7.4: pH 7.4 (HEPES)
Procedure, shortened: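 Solubility class (high >250 μM, moderate 31.3–250 μM, low <31.3 μM) comes from the concentration where absorbance reaches a 0.01 threshold, averaged across 490/535/650 nm. Samples were compound dilutions from DMSO stock, 1 μL into 99 μL buffer at pH 1.5, 4.5, 6.8 or 7.4.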

B-Raf V600E = B-Raf V600E (Homo sapiens (Human), UniProt P15056, V600E); experiment: B-Raf V600E kinase activity biochemical assay (AlphaScreen, biotin-MEK1 phosphorylation); conditions: for IC50: B-Raf V600E; for Biochemical activity ratio V600E/C: ratio of IC50 B-Raf V600E / c-Raf-1
Sequence of B-Raf V600E (P15056 whole entry V600E): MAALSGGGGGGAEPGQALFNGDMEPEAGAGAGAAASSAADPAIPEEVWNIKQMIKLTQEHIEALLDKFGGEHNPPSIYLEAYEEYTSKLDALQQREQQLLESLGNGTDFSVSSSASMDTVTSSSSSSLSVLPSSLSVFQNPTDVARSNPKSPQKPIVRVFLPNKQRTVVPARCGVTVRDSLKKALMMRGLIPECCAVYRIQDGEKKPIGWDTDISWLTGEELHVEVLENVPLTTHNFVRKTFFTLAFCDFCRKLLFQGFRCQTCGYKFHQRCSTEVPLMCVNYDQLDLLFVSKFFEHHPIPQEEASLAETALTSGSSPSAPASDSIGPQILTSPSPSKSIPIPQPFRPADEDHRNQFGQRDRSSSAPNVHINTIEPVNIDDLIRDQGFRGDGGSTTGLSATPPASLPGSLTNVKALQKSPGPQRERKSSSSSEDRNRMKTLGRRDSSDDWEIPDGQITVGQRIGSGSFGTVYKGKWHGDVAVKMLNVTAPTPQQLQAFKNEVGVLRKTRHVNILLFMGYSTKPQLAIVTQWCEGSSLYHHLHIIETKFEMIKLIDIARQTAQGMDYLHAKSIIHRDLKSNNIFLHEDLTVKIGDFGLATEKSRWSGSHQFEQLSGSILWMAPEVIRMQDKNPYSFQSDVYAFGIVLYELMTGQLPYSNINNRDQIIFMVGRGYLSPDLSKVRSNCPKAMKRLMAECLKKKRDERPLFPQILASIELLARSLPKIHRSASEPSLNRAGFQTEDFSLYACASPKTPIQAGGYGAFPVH
Procedure, shortened: as §1

B-Raf [2] = biological target: B-Raf (Homo sapiens (Human), UniProt P15056); experiment: B-Raf kinase activity biochemical assay (AlphaScreen, biotin-MEK1 phosphorylation); conditions: B-Raf
Sequence of B-Raf (Homo sapiens (Human), UniProt P15056) (P15056 whole entry): as the sequence (P15056 whole entry V600E) above, with E600V counted along it
Procedure, shortened: as §1

B-Raf [3] = experiment: as above; conditions: for Biochemical activity ratio B/V600E: ratio of IC50 B-Raf / B-Raf V600E; for Biochemical activity ratio B/C: ratio of IC50 B-Raf / c-Raf-1
Procedure, shortened: as §1

CYP2C9 = CYP2C9 (Homo sapiens (Human), UniProt P11712); experiment: CYP enzyme inhibition, fluorescent substrate (MFC)
Sequence of CYP2C9 (P11712 whole entry): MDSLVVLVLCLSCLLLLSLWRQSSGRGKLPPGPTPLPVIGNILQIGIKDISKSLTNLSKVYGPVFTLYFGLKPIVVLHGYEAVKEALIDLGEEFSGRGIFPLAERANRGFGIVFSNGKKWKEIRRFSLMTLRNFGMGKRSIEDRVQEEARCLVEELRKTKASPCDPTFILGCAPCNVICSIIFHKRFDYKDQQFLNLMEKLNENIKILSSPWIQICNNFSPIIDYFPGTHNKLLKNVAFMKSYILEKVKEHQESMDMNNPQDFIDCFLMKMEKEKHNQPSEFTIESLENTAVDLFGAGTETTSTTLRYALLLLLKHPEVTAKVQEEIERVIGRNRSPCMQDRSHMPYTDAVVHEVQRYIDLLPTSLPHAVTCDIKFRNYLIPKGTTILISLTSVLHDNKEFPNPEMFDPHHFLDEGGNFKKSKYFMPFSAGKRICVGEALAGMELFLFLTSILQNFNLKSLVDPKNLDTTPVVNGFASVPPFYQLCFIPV
Procedure, shortened: as §2

[4] = read-out: Cyp IC50 3A4(BFC), CYP3A4, substrate BFC
[5] = read-out: Cyp IC50 3A4(BQ), CYP3A4, substrate BQ
[6] = read-out: Cyp IC50 2C19, CYP2C19, substrate CEC
[7] = read-out: Cyp IC50 2C9, CYP2C9, substrate MFC

Sequence of c-Raf-1 (P04049 whole entry, looked up): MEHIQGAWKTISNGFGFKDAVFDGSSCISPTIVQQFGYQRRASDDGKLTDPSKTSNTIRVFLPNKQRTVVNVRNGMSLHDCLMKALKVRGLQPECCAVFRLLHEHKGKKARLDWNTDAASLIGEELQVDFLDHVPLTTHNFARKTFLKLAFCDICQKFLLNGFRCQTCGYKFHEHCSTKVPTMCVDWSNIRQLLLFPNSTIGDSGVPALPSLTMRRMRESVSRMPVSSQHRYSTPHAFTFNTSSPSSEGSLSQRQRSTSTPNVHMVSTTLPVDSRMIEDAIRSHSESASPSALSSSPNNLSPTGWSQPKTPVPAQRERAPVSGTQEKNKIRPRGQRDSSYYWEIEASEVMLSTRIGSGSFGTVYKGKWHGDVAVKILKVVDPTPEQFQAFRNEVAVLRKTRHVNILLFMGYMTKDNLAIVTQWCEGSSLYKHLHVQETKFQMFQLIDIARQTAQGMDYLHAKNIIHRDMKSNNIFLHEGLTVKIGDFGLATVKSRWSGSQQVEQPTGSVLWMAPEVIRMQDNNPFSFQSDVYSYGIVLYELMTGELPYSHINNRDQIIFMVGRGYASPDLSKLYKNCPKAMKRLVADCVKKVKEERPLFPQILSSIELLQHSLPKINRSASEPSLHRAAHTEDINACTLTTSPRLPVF

| Structure (SMILES) | IC50 (c-Raf-1) | IC50 (CYP3A4(BFC); [4]) | IC50 (CYP3A4(BQ); [5]) | IC50 (CYP1A2; human, 15 min) | IC50 (CYP2D6) | IC50 (CYP2C19; [6]) | turbidity threshold (L, M, H) 1.4 [1] | turbidity threshold (L, M, H) 4.5 [1] | turbidity threshold (L, M, H) 6.8 [1] | turbidity threshold (L, M, H) 7.4 [1] | IC50 (B-Raf V600E) | Biochemical activity ratio V600E/C (B-Raf V600E) | IC50 (B-Raf [2]) | Biochemical activity ratio B/V600E (B-Raf [3]) | Biochemical activity ratio B/C (B-Raf [3]) | IC50 (CYP2C9; [7]) | IC50 (CYP3A4(BFC)) | IC50 (CYP2C19) | IC50 (CYP2C9) | also measured |
| --- | --- | --- | --- | --- | --- | --- | --- | --- | --- | --- | --- | --- | --- | --- | --- | --- | --- | --- | --- | --- |
| O=C(c1c(F)ccc(NS(=O)(=O)c2ccc(C(F)(F)F)cc2)c1F)c1c[nH]c2ncnc(N3CCCC3)c12 [P-1061, N-[2,4-Difluoro-3-(4-pyrrolidin-1-yl-7H-pyrrolo[2,3-d]pyrimidine-5-carbonyl)-phenyl]-4-trifluoromethyl-benzenesulfonamide] | > 0.1 µM | > 10 µM | > 10 µM | > 10 µM | > 10 µM | > 10 µM | H (high solubility if the threshold concentration is >250 μm) | M (moderate solubility if the threshold concentration is 31.3 μM to 250 μM) | M (moderate solubility if the threshold concentration is 31.3 μM to 250 μM) | H (high solubility if the threshold concentration is >250 μm) | > 0.1 µM | >10 | > 0.1 µM | 0.1-10 | 0.1-10 | > 10 µM | – | – | – | – |
| CCCS(=O)(=O)Nc1ccc(F)c(C(=O)c2c[nH]c3ncc(Cl)c(C)c23)c1F [P-2008, Propane-1-sulfonic acid [3-(5-chloro-4-methyl-1H-pyrrolo[2,3-b]pyridine-3-carbonyl)-2,4-difluoro-phenyl]-amide] | < 0.1 µM | – | – | – | > 10 µM | – | L (low solubility if the threshold concentration is <31.3 μM) | M (moderate solubility if the threshold concentration is 31.3 μM to 250 μM) | L (low solubility if the threshold concentration is <31.3 μM) | M (moderate solubility if the threshold concentration is 31.3 μM to 250 μM) | < 0.1 µM | 0.1-10 | < 0.1 µM | 0.1-10 | 0.1-10 | – | > 10 µM | 5 to 10 µM | 5 to 10 µM | IC50 (CYP3A4(BQ)): > 10 µM; IC50 (CYP1A2): > 10 µM |
| Cc1ncnc2[nH]cc(C(=O)c3c(F)ccc(NS(=O)(=O)c4ccc(C(C)C)cc4)c3F)c12 [P-1009, N-[2,4-Difluoro-3-(4-methyl-7H-pyrrolo[2,3-d]pyrimidine-5-carbonyl)-phenyl]-4-isopropyl-benzenesulfonamide] | < 0.1 µM | < 5 µM | > 10 µM | > 10 µM | > 10 µM | – | H (high solubility if the threshold concentration is >250 μm) | L (low solubility if the threshold concentration is <31.3 μM) | L (low solubility if the threshold concentration is <31.3 μM) | M (moderate solubility if the threshold concentration is 31.3 μM to 250 μM) | > 0.1 µM | >10 | > 0.1 µM | 0.1-10 | >10 | < 5 µM | – | 5 to 10 µM | – | – |
| CCn1cc(Nc2ncnc3[nH]cc(C(=O)c4c(F)ccc(NS(=O)(=O)c5ccc(C(F)(F)F)cc5)c4F)c23)cn1 [P-1063, N-{3-[4-(1-Ethyl-1H-pyrazol-4-ylamino)-7H-pyrrolo[2,3-d]pyrimidine-5-carbonyl]-2,4-difluoro-phenyl}-4-trifluoromethyl-benzenesulfonamide] | < 0.1 µM | – | < 5 µM | > 10 µM | > 10 µM | – | L (low solubility if the threshold concentration is <31.3 μM) | L (low solubility if the threshold concentration is <31.3 μM) | L (low solubility if the threshold concentration is <31.3 μM) | L (low solubility if the threshold concentration is <31.3 μM) | > 0.1 µM | >10 | < 0.1 µM | 0.1-10 | >10 | – | 5 to 10 µM | 5 to 10 µM | 5 to 10 µM | – |
| CCCc1ccc(S(=O)(=O)Nc2ccc(F)c(C(=O)c3c[nH]c4ncnc(NC5COC5)c34)c2F)cc1 [P-1056, N-{2,4-Difluoro-3-[4-(oxetan-3-ylamino)-7H-pyrrolo[2,3-d]pyrimidine-5-carbonyl]-phenyl}-4-propyl-benzenesulfonamide] | < 0.1 µM | > 10 µM | > 10 µM | > 10 µM | > 10 µM | > 10 µM | M (moderate solubility if the threshold concentration is 31.3 μM to 250 μM) | L (low solubility if the threshold concentration is <31.3 μM) | L (low solubility if the threshold concentration is <31.3 μM) | L (low solubility if the threshold concentration is <31.3 μM) | > 0.1 µM | >10 | < 0.1 µM | 0.1-10 | >10 | > 10 µM | – | – | – | – |
| CCCc1ccc(S(=O)(=O)Nc2ccc(F)c(C(=O)c3c[nH]c4ncnc(C)c34)c2F)cc1 [P-1007, N-[2,4-Difluoro-3-(4-methyl-7H-pyrrolo[2,3-d]pyrimidine-5-carbonyl)-phenyl]-4-propyl-benzenesulfonamide] | < 0.1 µM | – | – | > 10 µM | > 10 µM | > 10 µM | L (low solubility if the threshold concentration is <31.3 μM) | L (low solubility if the threshold concentration is <31.3 μM) | L (low solubility if the threshold concentration is <31.3 μM) | L (low solubility if the threshold concentration is <31.3 μM) | > 0.1 µM | >10 | < 0.1 µM | 0.1-10 | 0.1-10 | > 10 µM | 5 to 10 µM | – | – | IC50 (CYP3A4(BQ)): 5 to 10 µM |
| Cc1cc(C)cc(S(=O)(=O)Nc2ccc(F)c(C(=O)c3c[nH]c4ncnc(NC(C)C)c34)c2F)c1 [P-1045, N-[2,4-Difluoro-3-(4-isopropylamino-7H-pyrrolo[2,3-d]pyrimidine-5-carbonyl)-phenyl]-3,5-dimethyl-benzenesulfonamide] | < 0.1 µM | – | > 10 µM | – | > 10 µM | < 5 µM | M (moderate solubility if the threshold concentration is 31.3 μM to 250 μM) | L (low solubility if the threshold concentration is <31.3 μM) | L (low solubility if the threshold concentration is <31.3 μM) | L (low solubility if the threshold concentration is <31.3 μM) | < 0.1 µM | 0.1-10 | > 0.1 µM | 0.1-10 | >10 | – | 5 to 10 µM | – | 5 to 10 µM | IC50 (CYP1A2; read-out: Cyp IC50 1A2, CYP1A2, substrate CEC): > 10 µM |
| O=C(c1c(F)ccc(NS(=O)(=O)c2ccc(C(F)(F)F)cc2)c1F)c1c[nH]c2ncnc(NCCO)c12 [P-1043, N-{2,4-Difluoro-3-[4-(2-hydroxy-ethylamino)-7H-pyrrolo[2,3-d]pyrimidine-5-carbonyl]-phenyl}-4-trifluoromethyl-benzenesulfonamide] | < 0.1 µM | > 10 µM | > 10 µM | > 10 µM | > 10 µM | > 10 µM | H (high solubility if the threshold concentration is >250 μm) | M (moderate solubility if the threshold concentration is 31.3 μM to 250 μM) | M (moderate solubility if the threshold concentration is 31.3 μM to 250 μM) | M (moderate solubility if the threshold concentration is 31.3 μM to 250 μM) | > 0.1 µM | >10 | < 0.1 µM | 0.1-10 | >10 | > 10 µM | – | – | – | – |
